Measured values: ChEMBL document CHEMBL3045054, “Synthesis and insecticidal activity of novel 1-alkyl-3-sulfonyloxypyrazole-4-carboxamide derivatives” (2010)

What was measured:
Type in all cases: functional
Tetranychus urticae [1] = assay: Insecticidal activity against Tetranychus urticae (two-spotted spider mite) eggs in compound treated kidney bean leaf disk assessed as ovicidal at 62.5 ppm measured after 7 days; details: foliar, 168 h
Tetranychus urticae [2] = assay: Insecticidal activity against Tetranychus urticae (two-spotted spider mite) in compound treated kidney bean leaf disk assessed as mortality at 62.5 ppm measured after 7 days; details: foliar, 168 h
Nephotettix cincticeps [3] = assay: Insecticidal activity against Nephotettix cincticeps (green rice leafhopper) third instar larvae in compound treated rice seedlings assessed as mortality at 62.5 ppm measured after 7 days; details: 168 h
Nephotettix cincticeps [4] = assay: Insecticidal activity against Nephotettix cincticeps (green rice leafhopper) third instar larvae in compound treated rice seedlings assessed as mortality at 3.1 ppm measured after 7 days; details: 168 h
Tetranychus urticae [5] = assay: Insecticidal activity against Tetranychus urticae (two-spotted spider mite) eggs in compound treated kidney bean leaf disk assessed as ovicidal at 3.1 ppm measured after 7 days; details: foliar, 168 h
Tetranychus urticae [6] = assay: Insecticidal activity against Tetranychus urticae (two-spotted spider mite) in compound treated kidney bean leaf disk assessed as mortality at 3.1 ppm measured after 7 days; details: foliar, 168 h
Tetranychus urticae [7] = assay: Insecticidal activity against Tetranychus urticae (two-spotted spider mite) eggs in compound treated kidney bean leaf disk assessed as ovicidal at 1.3 ppm measured after 7 days; details: foliar, 168 h
Tetranychus urticae [8] = assay: Insecticidal activity against Tetranychus urticae (two-spotted spider mite) in compound treated kidney bean leaf disk assessed as mortality at 1.3 ppm measured after 7 days; details: foliar, 168 h
Nephotettix cincticeps [9] = assay: Insecticidal activity against Nephotettix cincticeps (green rice leafhopper) third instar larvae in compound treated rice seedlings assessed as mortality at 1.3 ppm measured after 7 days; details: 168 h
Tetranychus urticae [10] = assay: Insecticidal activity against Tetranychus urticae (two-spotted spider mite) eggs in compound treated kidney bean leaf disk assessed as ovicidal at 500 ppm measured after 7 days; details: foliar, 168 h
Tetranychus urticae [11] = assay: Insecticidal activity against Tetranychus urticae (two-spotted spider mite) in compound treated kidney bean leaf disk assessed as mortality at 500 ppm measured after 7 days; details: foliar, 168 h
Nephotettix cincticeps [12] = assay: Insecticidal activity against Nephotettix cincticeps (green rice leafhopper) third instar larvae in compound treated rice seedlings assessed as mortality at 500 ppm measured after 7 days; details: 168 h

Row | SMILES | mortality at 62.5 ppm (Tetranychus urticae [1]) [%] | mortality at 62.5 ppm (Tetranychus urticae [2]) [%] | mortality at 62.5 ppm (Nephotettix cincticeps [3]) [%] | mortality at 3.1 ppm (Nephotettix cincticeps [4]) [%] | mortality at 3.1 ppm (Tetranychus urticae [5]) [%] | mortality at 3.1 ppm (Tetranychus urticae [6]) [%] | mortality at 1.3 ppm (Tetranychus urticae [7]) [%] | mortality at 1.3 ppm (Tetranychus urticae [8]) [%] | mortality at 1.3 ppm (Nephotettix cincticeps [9]) [%] | mortality at 500 ppm (Tetranychus urticae [10]) [%] | mortality at 500 ppm (Tetranychus urticae [11]) [%] | mortality at 500 ppm (Nephotettix cincticeps [12]) [%]
1 | Cn1cc(C(=O)NC2(C#N)CCCCC2)c(OS(C)(=O)=O)n1 | 20 | 93 | 50 | – | – | – | – | – | – | – | – | –
2 | CC(C)N(C)C(=O)c1cn(C)nc1OS(C)(=O)=O | 5 | 10 | 41 | – | – | – | – | – | – | – | – | –
3 | CCn1cc(C(=O)NC(C)C)c(OS(C)(=O)=O)n1 | 13 | 51 | 100 | 100 | – | – | – | – | – | – | – | –
4 | CCCNC(=O)c1cn(C)nc1OS(C)(=O)=O | 7 | 25 | 87 | – | – | – | – | – | – | – | – | –
5 | CC(C)NC(=O)c1cn(CCF)nc1OS(C)(=O)=O | 69 | 50 | 100 | 43 | – | – | – | – | – | – | – | –
6 | CCCn1cc(C(=O)NC(C)C)c(OS(C)(=O)=O)n1 | 26 | 36 | 100 | 76 | – | – | – | – | – | – | – | –
7 | CC(C)C(C)(C#N)NC(=O)c1cn(C)nc1OS(C)(=O)=O (stereo not given) | 100 | 100 | 100 | 32 | 26 | 11 | – | – | – | – | – | –
8 | CCCCCC(C)NC(=O)c1cn(C)nc1OS(C)(=O)=O (stereo not given) | 6 | 29 | 94 | 8 | – | – | – | – | – | – | – | –
9 | CCNC(=O)c1cn(C)nc1OS(C)(=O)=O | 0 | 0 | 0 | – | – | – | – | – | – | – | – | –
10 | CCCC(C#N)(CC)NC(=O)c1cn(C)nc1OS(C)(=O)=O (stereo not given) | 39 | 15 | 22 | – | – | – | – | – | – | – | – | –
11 | CC(C)NC(=O)c1cn(C)nc1OS(=O)(=O)CCl | 13 | 15 | 100 | 10 | – | – | – | – | – | – | – | –
12 | CCS(=O)(=O)Oc1nn(C)cc1C(=O)NC(C)C | 2 | 14 | 100 | 55 | – | – | – | – | – | – | – | –
13 | CCCC(C)NC(=O)c1cn(C)nc1OS(C)(=O)=O (stereo not given) | 44 | 94 | 100 | 95 | 6 | 7 | – | – | – | – | – | –
14 | Cn1cc(C(=O)NC2CC2)c(OS(C)(=O)=O)n1 | 9 | 21 | 97 | 10 | – | – | – | – | – | – | – | –
15 | CNC(=O)c1cn(C)nc1OS(C)(=O)=O | 4 | 19 | 20 | – | – | – | – | – | – | – | – | –
16 | CCC(C)(C#N)NC(=O)c1cn(C)nc1OS(C)(=O)=O (stereo not given) | 100 | 100 | 100 | 88 | 9 | 15 | – | – | – | – | – | –

Row | SMILES | mortality at 62.5 ppm (Tetranychus urticae [1]) [%] | mortality at 62.5 ppm (Tetranychus urticae [2]) [%] | mortality at 62.5 ppm (Nephotettix cincticeps [3]) [%] | mortality at 3.1 ppm (Nephotettix cincticeps [4]) [%] | mortality at 3.1 ppm (Tetranychus urticae [5]) [%] | mortality at 3.1 ppm (Tetranychus urticae [6]) [%] | mortality at 1.3 ppm (Tetranychus urticae [7]) [%] | mortality at 1.3 ppm (Tetranychus urticae [8]) [%] | mortality at 1.3 ppm (Nephotettix cincticeps [9]) [%] | mortality at 500 ppm (Tetranychus urticae [10]) [%] | mortality at 500 ppm (Tetranychus urticae [11]) [%] | mortality at 500 ppm (Nephotettix cincticeps [12]) [%]
17 | CC(NC(=O)c1cn(C)nc1OS(C)(=O)=O)c1ccccc1 (stereo not given) | 0 | 0 | 81 | – | – | – | – | – | – | – | – | –
18 | CC(C)NC(=O)c1cn(C)nc1OS(=O)(=O)C(F)(F)F | 10 | 15 | 24 | – | – | – | – | – | – | – | – | –
19 | CC(C)NC(=O)c1cn(CCCl)nc1OS(C)(=O)=O | 34 | 80 | 100 | 96 | 30 | 15 | – | – | – | – | – | –
20 | CCC(C#N)(CC)NC(=O)c1cn(C)nc1OS(C)(=O)=O | 100 | 100 | 100 | 55 | 100 | 100 | – | – | – | – | – | –
21 | CC(C)NC(=O)c1cn(C)nc1OS(C)(=O)=O | 37 | 100 | 100 | 100 | 23 | 17 | 22 | 16 | 74 | – | – | –
22 | Cn1cc(C(=O)NCC#N)c(OS(C)(=O)=O)n1 | 100 | 100 | 47 | – | 8 | 8 | – | – | – | – | – | –
23 | CCS(=O)(=O)Oc1nn(C(C)(C)C)cc1C(=O)NC(C)C | – | – | – | – | – | – | – | – | – | 0 | 50 | 0
24 | CC(C)CNC(=O)c1cn(C)nc1OS(C)(=O)=O | 12 | 89 | 100 | 100 | – | – | – | – | 97 | – | – | –
25 | Cn1cc(C(=O)NC(C)(C)C)c(OS(C)(=O)=O)n1 | 3 | 23 | 100 | 80 | – | – | – | – | – | – | – | –
26 | Cn1cc(C(=O)NCC(F)(F)F)c(OS(C)(=O)=O)n1 | 61 | 86 | 22 | – | – | – | – | – | – | – | – | –
27 | CCC(CC)NC(=O)c1cn(C)nc1OS(C)(=O)=O | 19 | 100 | 100 | 65 | – | 10 | – | – | – | – | – | –
28 | CCC(C#N)NC(=O)c1cn(C)nc1OS(C)(=O)=O (stereo not given) | 94 | 100 | 100 | 10 | 3 | 7 | – | – | – | – | – | –
29 | CC(C)NC(=O)c1cn(C)nc1OS(=O)(=O)N(C)C | 0 | 0 | 0 | – | – | – | – | – | – | – | – | –
30 | CC(C)NC(=O)c1cn(C(C)C)nc1OS(C)(=O)=O | 47 | 50 | 100 | 74 | – | – | – | – | – | – | – | –
31 | CCCC(C)(C#N)NC(=O)c1cn(C)nc1OS(C)(=O)=O (stereo not given) | 67 | 64 | 100 | 81 | 3 | 8 | – | – | – | – | – | –
